# Results from article PMC9127750, “Structure-based design of CDC42 effector interaction inhibitors for the treatment of cancer” (Cell reports, 2022).
# “And” between values parts separate entries of the source, which are not always exact repeats. Equal values may be shown once.
# Test system: WM3248 melanoma cells, 486 antibodies
# Assay: Reverse phase protein arrays (RPPA)
# Type: cell-based, Human
# Text: Pellets were snap frozen in liquid nitrogen and shipped to MD Anderson Cancer Center core RPPA facility for RPPA analysis (Table S5). Three biological replicates for each sample were generated.
# Nomenclatures on the RPPA heatmaps: name_of_antibody.species_of_antibody.status_of_antibody. V - antibody validated; C - validation of antibody in progress; Q - antibody nonspecific; E – under evaluation; antibodies raised in M - mouse, G - goat, R - rabbit, or T - rat.
smiles,measurement,setting,value
"CN(C)c1cccc(Nc2cc(-c3ccccc3)nc(C3CCNCC3)n2)c1 [ARN22089, N1,N1-dimethyl-N3-(6-phenyl-2-(piperidin-4-yl)pyrimidin-4-yl)benzene-1,3-diamine]",Cyclin.D3.M.V normalized signal,Norm_5 replicates,0.934 and 0.919 and 0.861
same,Cyclin.E1.R.V normalized signal,Norm_5 replicates,0.930 and 0.904 and 0.974
same,Cyclophilin.F.M.V normalized signal,Norm_5 replicates,0.842 and 0.856
same,D.a.Tubulin.R.V normalized signal,Norm_5 replicates,1.019 and 1.128
same,DAPK1_pS308.M.C normalized signal,Norm_5 replicates,1.353 and 1.627 and 0.788
same,DAPK2.R.C normalized signal,Norm_5 replicates,1.191 and 1.026
same,DDB.1.R.V normalized signal,Norm_5 replicates,1.062 and 0.816 and 1.300
same,DDR1.R.V normalized signal,Norm_5 replicates,0.866 and 0.933 and 1.046
same,DDR1_pY513.R.C normalized signal,Norm_5 replicates,0.890 and 1.005 and 1.047
same,DJ1.R.V normalized signal,Norm_5 replicates,1.019 and 1.054
same,DM.Histone.H3.R.V normalized signal,Norm_5 replicates,0.978 and 1.119 and 1.017
same,DM.K9.Histone.H3.M.V normalized signal,Norm_5 replicates,0.882 and 0.936 and 0.982
same,DNA.Ligase.IV.R.C normalized signal,Norm_5 replicates,1.083 and 0.953
same,DNA_POLG.R.V normalized signal,Norm_5 replicates,1.009 and 1.004
same,c.Jun_pS73.R.V normalized signal,Norm_5 replicates,0.798 and 0.640 and 0.915
same,c.Kit.R.V normalized signal,Norm_5 replicates,1.128 and 0.954
same,c.Met_pY1234_Y1235.R.V normalized signal,Norm_5 replicates,0.983 and 1.008 and 1.024
same,c.Myc.R.C normalized signal,Norm_5 replicates,0.935 and 1.002
same,cGAS.R.V normalized signal,Norm_5 replicates,0.859 and 0.966 and 1.027
same,cdc2_pY15.R.C normalized signal,Norm_5 replicates,1.026 and 1.124
same,cdc25C.R.V normalized signal,Norm_5 replicates,0.919 and 0.928 and 0.857
same,MYH11.R.C Average,"Norm_10, normalized to Norm_0",1.438
same,Myosin.IIa.R.C Average,"Norm_10, normalized to Norm_0",1.143
same,Myosin.IIa_pS1943.R.V Average,"Norm_10, normalized to Norm_0",1.250
same,Myt1.R.C Average,"Norm_10, normalized to Norm_0",0.974
same,N.Cadherin.R.V Average,"Norm_10, normalized to Norm_0",1.013
same,N.Ras.M.V Average,"Norm_10, normalized to Norm_0",0.937
same,NAPSIN.A.R.C Average,"Norm_10, normalized to Norm_0",1.005
same,NDRG1_pT346.R.V Average,"Norm_10, normalized to Norm_0",1.345
same,NDUFB4.R.V Average,"Norm_10, normalized to Norm_0",1.030
same,NRF2.R.C Average,"Norm_10, normalized to Norm_0",0.980
same,Notch1.R.V Average,"Norm_10, normalized to Norm_0",0.957
same,Notch1.cleaved.R.V Average,"Norm_10, normalized to Norm_0",0.977
same,Notch3.R.C Average,"Norm_10, normalized to Norm_0",1.054
same,Oct.4.R.C Average,"Norm_10, normalized to Norm_0",1.008
same,P.Cadherin.R.C Average,"Norm_10, normalized to Norm_0",1.101
same,PAI.1.M.V Average,"Norm_10, normalized to Norm_0",0.931
same,PAICS.R.C Average,"Norm_10, normalized to Norm_0",0.957
same,PAK1.R.V Average,"Norm_10, normalized to Norm_0",0.905
same,PAK4.R.V Average,"Norm_10, normalized to Norm_0",1.019
same,PAK_pS474_S602_S560.R.V Average,"Norm_10, normalized to Norm_0",1.098
same,PAK_pT423_T402.R.C Average,"Norm_10, normalized to Norm_0",1.015
same,PAR.R.C Average,"Norm_10, normalized to Norm_0",1.104
same,PARG.R.C Average,"Norm_10, normalized to Norm_0",1.019
same,PARP.R.V Average,"Norm_10, normalized to Norm_0",1.149
same,PAX6.R.V Average,"Norm_10, normalized to Norm_0",0.956
same,PAX8.R.C Average,"Norm_10, normalized to Norm_0",1.011
same,PCNA.M.C Average,"Norm_10, normalized to Norm_0",0.988
same,PD.1.R.V Average,"Norm_10, normalized to Norm_0",0.998
same,PD.L1.R.C Average,"Norm_10, normalized to Norm_0",0.960
same,PDH.M.V Average,"Norm_10, normalized to Norm_0",0.958
same,PDK1.R.V Average,"Norm_10, normalized to Norm_0",1.058
same,PDK1_pS241.R.V Average,"Norm_10, normalized to Norm_0",0.934
same,PEA.15.R.V Average,"Norm_10, normalized to Norm_0",1.020
same,PEA.15_pS116.R.V Average,"Norm_10, normalized to Norm_0",0.996
same,PERK.R.V Average,"Norm_10, normalized to Norm_0",1.061
same,PHGDH.R.C Average,"Norm_10, normalized to Norm_0",0.964
same,PHLPP.R.V Average,"Norm_10, normalized to Norm_0",1.190
same,PI3K.p85.R.C Average,"Norm_10, normalized to Norm_0",1.002
same,PI3K.p110.a.R.C Average,"Norm_10, normalized to Norm_0",0.864
same,PI3K.p110.b.M.C Average,"Norm_10, normalized to Norm_0",0.990
same,PKA.a.R.V Average,"Norm_10, normalized to Norm_0",0.941
same,PKC.a.b.II_pT638_T641.R.V Average,"Norm_10, normalized to Norm_0",0.894
same,PKC.b.II_pS660.R.V Average,"Norm_10, normalized to Norm_0",0.986
same,PKCa.R.V Average,"Norm_10, normalized to Norm_0",1.017
same,PKM2.R.C Average,"Norm_10, normalized to Norm_0",1.046
same,PLC.gamma1.R.V Average,"Norm_10, normalized to Norm_0",1.192
same,PLC.gamma1_pS1248.R.V Average,"Norm_10, normalized to Norm_0",1.153
same,PLC.gamma2_pY759.R.V Average,"Norm_10, normalized to Norm_0",1.003
same,PLK1.R.C Average,"Norm_10, normalized to Norm_0",0.886
same,PMS2.R.V Average,"Norm_10, normalized to Norm_0",1.014
same,PR.R.V Average,"Norm_10, normalized to Norm_0",0.988
same,PRAS40.M.C Average,"Norm_10, normalized to Norm_0",1.046
same,PRAS40_pT246.R.V Average,"Norm_10, normalized to Norm_0",1.016
same,PRC1_pT481.R.C Average,"Norm_10, normalized to Norm_0",1.014
same,Patched.R.C Average,"Norm_10, normalized to Norm_0",0.952
same,Paxillin.R.C Average,"Norm_10, normalized to Norm_0",0.862
same,Pdcd4.R.C Average,"Norm_10, normalized to Norm_0",0.987
same,Porin.M.V Average,"Norm_10, normalized to Norm_0",1.053
same,p21.R.C Average,"Norm_10, normalized to Norm_0",0.934
same,p27_pT157.R.C Average,"Norm_10, normalized to Norm_0",1.162
same,p27_pT198.R.V Average,"Norm_10, normalized to Norm_0",1.113
